Experimental data published in patent US20250101486A1, “METHOD AND COMPOSITION FOR STABILISING NICOTINAMIDE ADENINE DINUCLEOTIDE” (ORIENTAL YEAST CO., LTD., priority 2022, published 2025).
Each block holds one compound with its values, some of them ahead of it.

Key:
[1] = Stability test of NAD (recovery test of NAD added to human pooled serum); assay type: in vitro ADME
Procedure: NAD was added to 2250 μL of human pooled serum to make 50 μmol/L and incubated at refrigeration, 25° C. and 37° C. The NAD concentrations in serum were measured at 1, 2, and 19 hours after the start of incubation.
The NAD concentration of the sample (i.e., serum) was measured by the following procedure,
(§1) Three times the volume of 0.4 M trichloroacetic acid solution was added to the collected sample, mixed, and placed for 10 minutes under a static condition at room temperature. The mixture was then centrifuged, and the supernatant was collected as an NAD extract.
(§2) NAD in the extract was measured using a 7180 type Hitachi automatic analyzer (manufactured by Hitachi High-Tech Corporation). The measurement was performed by setting the first test solution (comprising a phosphate buffer (pH 7.0), 0.6 mM WST-8 and 1.7 U/mL glucose dehydrogenase (GLUCDH “Amano” 2 manufactured by Amano Enzyme Inc.) and the second test solution (comprising a phosphate buffer (pH 7.8), 320 mM D-glucose and 15 U/mL diaphorase (No. 46445003 manufactured by Oriental Yeast Co., Ltd.) using the measurement parameters as follows. • Analysis method . . . Rate A • Measurement wavelength (sub/main) . . . 600 nm/450 nm • Reaction duration . . . 10 minutes • Photometric points 27 to 34 • Sample solution (NAD extract solution) . . . 2 μL • R1 reagent . . . 120 μL • R2 reagent . . . 40 μL
(§3) That is, 2 AL of NAD extract and 120 μL of the first test solution were mixed and incubated at 37° C. for 4.5 min (photometric point 1 to 16), and 40 μL of the second test solution was added to start the reaction (photometric point 17). The value of an absorbance change per minute (ΔAbs/min) was calculated by subtracting an absorbance of water (blank) at the same photometric point from the absorbance value of the measured sample at 8 to 10 minutes (photometric point 27 to 34) after the start of reaction.
(§4) The NAD concentration of the sample was calculated from the calibration curve (the NAD concentration−the increase rate of absorbance (ΔAbs/min)) that was obtained beforehand by measuring multiple NAD solutions at predetermined concentrations.
FIG. 1 is a graph illustrating a time-course change of relative values (%) of the NAD concentration in serum under each incubation condition when the concentration at the time of NAD addition (0 hour) is set as 100%. When stored at 25° C. and 37° C., the NAD concentrations reached almost 0% within two hours.

[2] = after collection, suspended in a buffer solution for extraction, cooled in ice; cited from earlier work
[3] = Stabilizing study of NAD in blood using nicotinamide and NR; conditions: rat whole blood, overnight at 25° C.
Procedure: as §1, §2, §3, §4
(§5) Whole blood was collected from SD retired rats using EDTA-filled blood collection tubes, PBS (pH 6.0) comprising nicotinamide and NR at 10 times the concentration shown in Table 2 was prepared as a 10× stabilizer for each. 450 μL of whole blood was transferred to a 1.5-mL centrifuge tube, and 50 μL of a 10× stabilizer for each was added and mixed. NAD was added to each tube to make 100 µM and used as a measurement sample.
(§6) The NAD extraction and the NAD measurement were performed on each measurement sample after being placed overnight under a static condition at 25° C., in the same manner according to Example 1. The relative value (%) of NAD concentration of each measured sample was calculated, wherein the concentration at the time of NAD addition (0 hour) was set as 100%. […] It was confirmed that the amount of remaining NAD became higher as the amount of nicotinamide and NR increased.

[4] = Stabilizing study of NAD in blood using NMN and NR; conditions: rat whole blood, overnight at 25° C.
Procedure: Whole blood was collected from SD retired rats using EDTA-filled blood collection tubes. PBS (pH 6.0) comprising NMN and NR at 10 times the concentration shown in Table 3 was prepared as a 10× stabilizer for each. 450 μL of whole blood was transferred to a 1.5-mL centrifuge tube, and 50 μL of 10× stabilizer for each was added and mixed. NAD was added to each tube to make 100 µM and used as a measurement sample.
The NAD extraction and the NAD measurement were performed on each measurement sample after being placed overnight under a static condition overnight at 25° C., in the same manner according to Example 1. The relative value (%) of NAD concentration of each measured sample was calculated, wherein the concentration at the time of NAD addition (0 hour) was set as 100%.

[5] = Stabilizing study of NAD in blood using nicotinamide and NMN; conditions: rat whole blood, overnight at 25° C.
Procedure: as §1, §2, §3, §4
as §5, with “tubes.” for “tubes,”, “NMN” for “NR”, “1” for “2”
as §6, with “NMN” for “NR”

relative value (%) of NAD concentration in serum (0 hour = 100%) ([1]; stored at 25° C., within two hours): ~0%
relative value (%) of NAD concentration in serum (0 hour = 100%) ([1]; stored at 37° C., within two hours): ~0%
relative value (%) of NAD concentration in serum (0 hour = 100%) ([1]; stored at refrigeration, within 20 hours): ~0%
NAD concentration in serum relative to 0 hour ([1]; stored at refrigeration, within two hours): reduced by about half
Compound: NC(=O)c1ccc[n+]([C@@H]2O[C@H](COP(=O)([O-])OP(=O)(O)OC[C@H]3O[C@@H](n4cnc5c(N)ncnc54)[C@H](O)[C@@H]3O)[C@@H](O)[C@H]2O)c1 [NAD, nicotinamide adenine dinucleotide]
time for which a blood sample for NAD measurement is stable [2]: 5 h

Compound: NC(=O)c1ccc[n+]([C@@H]2O[C@H](CO)[C@@H](O)[C@H]2O)c1 [NR, nicotinamide riboside]
relative value (%) of NAD concentration (0 hour = 100%) ([3]; 0 mM nicotinamide, 3 mM NR): 7.5%
relative value (%) of NAD concentration (0 hour = 100%) ([3]; 0 mM nicotinamide, 10 mM NR): 49.7%
relative value (%) of NAD concentration (0 hour = 100%) ([3]; 0 mM nicotinamide, 20 mM NR): 64.8%
relative value (%) of NAD concentration (0 hour = 100%) ([4]; 20 mM NR, 0 mM NMN): 62.9%
relative value (%) of NAD concentration (0 hour = 100%) ([4]; 50 mM NR, 0 mM NMN): 71.2%
relative value (%) of NAD concentration (0 hour = 100%) ([4]; 100 mM NR, 0 mM NMN): 77.7%

Compound: NC(=O)c1cccnc1 [Nicotinamide, nicotinamide]
relative value (%) of NAD concentration (0 hour = 100%) ([5]; 50 mM nicotinamide, 0 mM NMN): 7.4%
relative value (%) of NAD concentration (0 hour = 100%) ([5]; 100 mM nicotinamide, 0 mM NMN): 6.6%
relative value (%) of NAD concentration (0 hour = 100%) ([5]; 200 mM nicotinamide, 0 mM NMN): 13.7%
relative value (%) of NAD concentration (0 hour = 100%) ([3]; 50 mM nicotinamide, 0 mM NR): 7.8%
relative value (%) of NAD concentration (0 hour = 100%) ([3]; 100 mM nicotinamide, 0 mM NR): 8.7%
relative value (%) of NAD concentration (0 hour = 100%) ([3]; 200 mM nicotinamide, 0 mM NR): 10.8%

Compound: nicotinamide mononucleotide [NMN]
relative value (%) of NAD concentration (0 hour = 100%) ([5]; 0 mM nicotinamide, 3 mM NMN): 8.2%
relative value (%) of NAD concentration (0 hour = 100%) ([5]; 0 mM nicotinamide, 10 mM NMN): 16.1%
relative value (%) of NAD concentration (0 hour = 100%) ([5]; 0 mM nicotinamide, 20 mM NMN): 33.0%
relative value (%) of NAD concentration (0 hour = 100%) ([4]; 0 mM NR, 20 mM NMN): 29.1%
relative value (%) of NAD concentration (0 hour = 100%) ([4]; 0 mM NR, 50 mM NMN): 58.0%
relative value (%) of NAD concentration (0 hour = 100%) ([4]; 0 mM NR, 100 mM NMN): 89.6%
